According to PubChem BioAssay AID248 (DTP/NCI, 2004):
“And” between values parts separate entries of the source, which are not always exact repeats. Identical values can stand only once. Toxic doses and inconclusive results are not listed.

Tested on: L1210 leukemia ip in BDF1 mice, survival T/C
Assay: NCI In Vivo Anticancer Drug Screen. Data for tumor model L1210 Leukemia (intraperitoneal) in B6D2F1 (BDF1) mice
Conditions: endpoint: mean survival time, higher = longer survival
Procedure, shortened: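 Each compound was tested against a transplantable tumor grown in mice. The endpoint was survival, with treated animals benchmarked against vehicle controls as a simple ratio.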

[1] = dose: 100.0 mg/kg/injection, schedule: Q01DX009 (ip), vehicle: saline
[2] = dose: 100.0 mg/kg/injection, schedule: Q04DX003 (ip), vehicle: Klucel (hydroxypropylcellulose) (HPC)
[3] = dose: 200.0 mg/kg/injection, schedule: Q04DX003 (ip), vehicle: Klucel (hydroxypropylcellulose) (HPC)
[4] = dose: 400.0 mg/kg/injection, schedule: Q01DX001 (ip), vehicle: saline

SMILES: COc1cccc(CN(C)CCC(=O)O)c1
- T/C [1]: 97 % of control
- T/C (dose: 100.0 mg/kg/injection, schedule: Q04DX003 (ip), vehicle: saline): 105 % of control
- T/C (dose: 200.0 mg/kg/injection, schedule: Q01DX009 (ip), vehicle: saline): 94 % of control
- T/C (dose: 200.0 mg/kg/injection, schedule: Q04DX003 (ip), vehicle: saline): 109 % of control
- T/C (dose: 400.0 mg/kg/injection, schedule: Q01DX009 (ip), vehicle: saline): 101 % of control
- T/C (dose: 400.0 mg/kg/injection, schedule: Q04DX003 (ip), vehicle: saline): 105 % of control

SMILES: Clc1ccc2sc3c(c2c1)CCNC3
- T/C (dose: 12.5 mg/kg/injection, schedule: Q01DX009 (ip), vehicle: Klucel (hydroxypropylcellulose) (HPC)): 94 % of control
- T/C (dose: 25.0 mg/kg/injection, schedule: Q01DX009 (ip), vehicle: Klucel (hydroxypropylcellulose) (HPC)): 97 % of control
- T/C (dose: 25.0 mg/kg/injection, schedule: Q04DX003 (ip), vehicle: Klucel (hydroxypropylcellulose) (HPC)): 97 % of control
- T/C (dose: 50.0 mg/kg/injection, schedule: Q01DX009 (ip), vehicle: Klucel (hydroxypropylcellulose) (HPC)): 90 % of control
- T/C (dose: 100.0 mg/kg/injection, schedule: Q01DX009 (ip), vehicle: Klucel (hydroxypropylcellulose) (HPC)): 101 % of control
- T/C [2]: 92 % of control
- T/C (dose: 200.0 mg/kg/injection, schedule: Q01DX009 (ip), vehicle: Klucel (hydroxypropylcellulose) (HPC)): 95 % of control
- T/C [3]: 92 % of control

SMILES: O=[N+]([O-])c1ccc(N/N=C2\CCCc3c2ccc2ccccc32)c([N+](=O)[O-])c1
- T/C (dose: 100.0 mg/kg/injection, schedule: Q01DX001 (ip), vehicle: saline): 97 % of control
- T/C (dose: 200.0 mg/kg/injection, schedule: Q01DX001 (ip), vehicle: saline): 92 % of control
- T/C [4]: 103 % of control

SMILES: CN=C(C)c1ccc(N(C)C)cc1
- T/C [2]: 101 % of control
- T/C [3]: 92 % of control
- T/C (dose: 400.0 mg/kg/injection, schedule: Q04DX003 (ip), vehicle: Klucel (hydroxypropylcellulose) (HPC)): 97 % of control

SMILES: O=C(OC1COC(OCc2ccccc2)C(OC(=O)c2ccccc2)C1OC(=O)c1ccccc1)c1ccccc1 (stereo unspecified)
- T/C (dose: 25.0 mg/kg/injection, schedule: Q04DX003 (ip), vehicle: saline with Tween-80): 94 % of control
- T/C (dose: 100.0 mg/kg/injection, schedule: Q04DX003 (ip), vehicle: saline with Tween-80): 93 % of control and 87 % of control

SMILES: c1ccc(CCSc2ncnc3nc[nH]c23)cc1
- T/C (dose: 31.3 mg/kg/injection, schedule: Q01DX Z (ip), vehicle: saline): 94 % of control
- T/C (dose: 62.5 mg/kg/injection, schedule: Q01DX Z (ip), vehicle: saline): 94 % of control
- T/C [1]: 122 % of control
- T/C (dose: 125.0 mg/kg/injection, schedule: Q01DX Z (ip), vehicle: saline): 97 % of control
- T/C (dose: 175.0 mg/kg/injection, schedule: Q01DX001 (ip), vehicle: saline): 100 % of control
- T/C (dose: 250.0 mg/kg/injection, schedule: Q01DX Z (ip), vehicle: saline): 100 % of control and 101 % of control
- T/C (dose: 265.0 mg/kg/injection, schedule: Q01DX001 (ip), vehicle: saline): 93 % of control
- T/C (dose: 340.0 mg/kg/injection, schedule: Q01DX009 (ip), vehicle: saline): 159 % of control
- T/C [4]: 108 % of control
- T/C (dose: 500.0 mg/kg/injection, schedule: Q01DX Z (ip), vehicle: saline): 111 % of control
- T/C (dose: 600.0 mg/kg/injection, schedule: Q01DX001 (ip), vehicle: saline): 101 % of control
- T/C (dose: 1000.0 mg/kg/injection, schedule: Q01DX Z (ip), vehicle: saline): 117 % of control

SMILES: O=C(Nc1ccc(C2=NCCN2)cc1)c1ccc(F)c(C(=O)Nc2ccc(C3=NCCN3)cc2)c1
- T/C (dose: 2.25 mg/kg/injection, schedule: Q01DX Z (ip), vehicle: water): 105 % of control
- T/C (dose: 4.5 mg/kg/injection, schedule: Q01DX Z (ip), vehicle: water): 107 % of control
- T/C (dose: 9.0 mg/kg/injection, schedule: Q01DX Z (ip), vehicle: water): 116 % of control
- T/C (dose: 37.5 mg/kg/injection, schedule: Q01DX Z (ip), vehicle: water): 154 % of control
- T/C (dose: 75.0 mg/kg/injection, schedule: Q01DX Z (ip), vehicle: water): 189 % of control
- T/C (dose: 150.0 mg/kg/injection, schedule: Q01DX Z (ip), vehicle: water): 241 % of control
- T/C (dose: 300.0 mg/kg/injection, schedule: Q01DX Z (ip), vehicle: water): 229 % of control
